The values that follow come from patent US11008290B2, “Halogenated quinoline derivatives as antimicrobial agents” (University of Florida Research Foundation, Incorporated, priority 2015, dated 2021).

Molecules are shown by their SMILES. Converted amounts (≈) assume the structure as drawn. Read-outs that look alike come from different tables or passages of the source.

The subject of series [1] is methicillin-resistant Staphylococcus aureus-2 (MRSA-2; clinical isolate). As to the kind of experiment: Minimum inhibitory concentration (MIC) susceptibility assay, broth microdilution. In kind it is cell-based. The method, then:
(§1) The minimum inhibitory concentration (MIC) for each compound was determined by the broth microdilution method as recommended by the Clinical and Laboratory Standards Institute (CLSI). In a 96-well plate, eleven two-fold serial dilutions of each compound were made in a final volume of 100 μL Luria Broth. Each well was inoculated with ˜10^5 bacterial cells at the initial time of incubation, prepared from a fresh log phase culture (OD600 of 0.5 to 1.0 depending on bacterial strain). […] The concentration range tested for each compound during this study was 0.10 to 100 μM. DMSO served as the vehicle and negative control in each microdilution MIC assay. DMSO was serially diluted with a top concentration of 1% v/v. Bacterial strains used: methicillin-resistant Staphylococcus aureus-2 (MRSA-2; clinical isolate from Shands Hospital in Gainesville, Fla.), methicillin-resistant Staphylococcus epidermidis (MRSE; ATCC 35984), vancomycin-resistant Enterococcus faecium (VRE, ATCC 700221).
(Broth dilution looks for growth in wells or tubes with falling amounts of substance.)

Series [2] concerns methicillin-resistant Staphylococcus epidermidis (MRSE; ATCC 35984). The description is as above. In kind it is cell-based. To be noted: for MIC: read-out: MRSE MIC. The method, then:
as §1

The test system of series [3] is vancomycin-resistant Enterococcus faecium (VRE, ATCC 700221). The description is as above. In kind it is cell-based. To be noted: read-out: VRE MIC. The method, then: as §1
Series [4] has as its system MRSA-2 planktonic cells and biofilms. Briefly: Calgary Biofilm Device (CBD) MBC/MBEC determination. In kind it is cell-based, Staphylococcus aureus. The settings on record: for MBC: Staphylococcus aureus, MRSA. How it is done: (§2) Biofilm eradication experiments were performed using the Calgary Biofilm Device to determine MBC/MBEC values for various compounds of interest (Innovotech, product code: 19111). The Calgary device (96-well plate with lid containing 96 total pegs to establish biofilms; 1 peg/well) was inoculated with 125 μL of a mid-log phase culture diluted 1,000-fold in tryptic soy broth with 0.5% glucose (TSBG) to establish bacterial biofilms after incubation at 37° C. for 24 hours. The lid of the Calgary device was then removed, washed and transferred to another 96-well plate containing 2-fold serial dilutions of the test compounds (the “challenge plate”). The total volume of media with compound in each well in the challenge plate was 150 μL. The Calgary device was then incubated at 37° C. for 24 hours. The lid was then removed from the challenge plate and MBC/MBEC values were determined using different final assays. […] The MBC values were determined as the concentration giving a lack of visible bacterial growth (e.g., turbidity). For determination of MBEC values, the Calgary device lid (with attached pegs/treated biofilms) was transferred to a new 96-well plate containing 150 μL of fresh TSBG media in each well and incubated for 24 hours at 37° C. to allow viable biofilms to grow and disperse resulting in turbidity after the incubation period. […] In select experiments, treated pegs from the Calgary device were removed from lead biofilm eradicators after final incubation, sonicated for 30 minutes in PBS and plated out to determine biofilm cell killing (e.g., colony forming unit per milliliter, CFU/mL).

Series [5] deals with MRSE (ATCC 35984) planktonic cells and biofilms. Described as above. The class given is cell-based, Staphylococcus epidermidis. To be noted: for MBC: Staphylococcus epidermidis, planktonic killing, CBD, first value of cell. How it is done:
as §2

Series [6] has as its system VRE (ATCC 700221) planktonic cells and biofilms. Described as above. In kind it is cell-based, Enterococcus faecium. The settings on record: Enterococcus. How it is done:
as §2

A further series has as its system human red blood cells. As to the kind of experiment: Hemolysis assay. In kind it is cell-based. The method, then:
Freshly drawn human red blood cells (hRBC with ethylenediaminetetraacetic acid (EDTA) as an anticoagulant) were washed with Tris-buffered saline (0.01M Tris-base, 0.155M sodium chloride (NaCl), pH 7.2) and centrifuged for 5 minutes at 3500 rpm. The washing was repeated three times with the buffer. In 96-well plate, the test compounds were added to the buffer. […] The plate was then incubated for 1 hour at 37° C. After incubation, the plate is centrifuged for 5 minutes at 3500 rpm. Then 80 μL of the supernatant were transferred to another 96-well plate and the Optical Density (OD) was read at 405 nm. […] The percent of hemolysis was calculated as (OD405 of the compound-OD405 DMSO)/(OD405 Triton X-OD405 buffer).

Another series has as its system MRSA-2. As to the kind of experiment: Mechanistic investigations with metal(II)-cations (MIC assay with 200 μM metal salt). The settings on record: for MIC: Staphylococcus aureus. The class given is cell-based, Staphylococcus aureus. The method, then: as §1
[7] abbreviates: Table 3, planktonic killing, CBD, first value of MBC/MBEC cell, read-out: MRSA-2 MBC.
[8] abbreviates: Staphylococcus, MRSA, Table 2, 2 to 6 independent experiments, read-out: MRSA-2 MIC.
The mark [9] stands for this setting: Staphylococcus epidermidis, Table 2, ATCC 35984.
Where [10] appears, read: Table 2, planktonic killing, CBD, first value of MBC/MBEC cell, read-out: MRSA-2 Clinical Isolate MBC.
The mark [11] stands for this setting: Table 2, read-out: MRSE ATCC 35984 MBC.
[12] abbreviates: Staphylococcus epidermidis, 18 h, Table 2, ATCC 35984.
[13] abbreviates: Table 2, planktonic killing, CBD, first value of cell, read-out: VRE ATCC 700221 MBC.
Where [14] appears, read: MRSA-2, change in antibacterial activity according to MIC values.

In the case of `CCc1ccc2c(Br)cc(Br)c(O)c2n1` [A-HQ-1], the MIC in series [1] (Staphylococcus, MRSA, Table 3, at least three independent experiments, read-out: MRSA-2 MIC) worked out at 0.78 µM (≈ 0.258 µg/mL); in series [2] (Staphylococcus epidermidis, Table 3), 0.39 µM (≈ 0.129 µg/mL); in series [3] (Table 3), 0.78 µM (≈ 0.258 µg/mL). The MBC in series [4] (setting [7]) was 93.8 µM (≈ 31 µg/mL); in series [5] (Table 3, read-out: MRSE MBC), 31.3 µM (≈ 10.4 µg/mL); in series [6] (Table 3, planktonic killing, CBD, first value of cell, footnote c = lowest concentration tested, read-out: VRE MBC), 1.5 µM (≈ 0.497 µg/mL). Further, the “% Haemolysis at 200 μM” value in the series with human red blood cells (human, 1 h, pH 7.2) was not above 1%.
In the case of `N#CC(C#N)=NNc1cccc(Cl)c1` [CCCP, carbonyl cyanide m-chlorophenyl hydrazone, reference compound], the MIC in series [1] (setting [8]) worked out at 3.13 µM (≈ 0.64 µg/mL); in series [1] (Table 3, at least three independent experiments, read-out: MRSA-2 MIC), 3.13 µM (≈ 0.64 µg/mL); in series [2] (setting [9]), 6.25 µM (≈ 1.28 µg/mL); in series [2] (Table 3), 6.25 µM (≈ 1.28 µg/mL). Besides, the MBC in series [4] (setting [10]) was found to be 31.3 µM (≈ 6.4 µg/mL); in series [4] (setting [7]), 31.3 µM (≈ 6.4 µg/mL); in series [5] (setting [11]) it was 31.3 µM (≈ 6.4 µg/mL); in series [5] (Table 3, read-out: MRSE MBC), 31.3 µM (≈ 6.4 µg/mL). The “% Haemolysis at 200 μM” value in the series with human red blood cells (Table 2, human red blood cells, 1 hour at 37° C.) stood at 3.5%; in the series with human red blood cells (Table 3, human red blood cells), 3.5%.
Consider `O=C(O)CN(CCN(CC(=O)O)CC(=O)O)CC(=O)O` [EDTA, ethylenediaminetetraacetic acid, reference compound], for which the MBC in series [4] (setting [7]) is 2000 µM (≈ 584 µg/mL); in series [5] (Table 3, read-out: MRSE MBC) it was 1000 µM (≈ 292 µg/mL). Moreover, in the series with human red blood cells (Table 3, human red blood cells), the “% Haemolysis at 200 μM” value was 3.0%.
Take `CCCCNCc1ccc2c(Br)cc(Br)c(O)c2n1` [HQ-2]: the MIC in series [1] (Staphylococcus, MRSA) stood at 3.13 µM (≈ 1.21 µg/mL); in series [1] (Staphylococcus, MRSA, read-out: MRSA-2 MIC) it was 6.25 µM (≈ 2.43 µg/mL); in series [2] (Staphylococcus epidermidis), 3.13 µM (≈ 1.21 µg/mL); in series [3], 3.13 µM (≈ 1.21 µg/mL); in the series on MRSA-2 (MRSA, read-out: MIC w/Cu^2+), 3.13 µM; with MRSA-2 (MRSA, read-out: MIC w/Fe^2+) it was 3.13 µM. The MIC in the series with MRSA-2 (MRSA, read-out: MIC w/Zn^2+) amounted to 1.17 µM. Besides, the MBC in series [4] (read-out: MRSA-2 Clinical Isolate MBC) was found to be 46.9 µM (≈ 18.2 µg/mL); in series [6] (read-out: VRE ATCC 700221 MBC), 15.6 µM (≈ 6.05 µg/mL).
Take `Oc1c(Br)cc(Br)c2ccc(CNc3cccc(Cl)c3)nc12` [HQ-4]: the MIC is 1.17 µM (≈ 0.518 µg/mL) in series [1] (setting [8]); 0.15 to 0.3 µM (≈ 0.0664 to 0.133 µg/mL) in series [2] (setting [12]); 0.3 µM (≈ 0.133 µg/mL) in series [2] (setting [9]); 0.39 to 0.78 µM (≈ 0.173 to 0.345 µg/mL) in series [3] (18 h, Table 2, ATCC 700221); 0.78 µM (≈ 0.345 µg/mL) in series [3] (Table 2, ATCC 700221). The MBC in series [4] (setting [10]) amounted to 62.5 µM (≈ 27.7 µg/mL); in series [5] (setting [11]), 9.38 µM (≈ 4.15 µg/mL); in series [6] (setting [13]), 1.5 µM (≈ 0.664 µg/mL). The “MRSA-2 MBEC” value in series [4] (Table 3, biofilm eradication, CBD, second value of MBC/MBEC cell) is listed as “equipotent biofilm eradication activities”. Besides, the “MBEC:MBC ratio” value in series [5] (MRSE 35984, CBD) is reported as approximately 1.
As for `Oc1c(Br)cc(Br)c2ccc(CNc3cc(Cl)cc(Cl)c3)nc12` [HQ-5], the MIC was 1.56 µM (≈ 0.744 µg/mL) in series [1] (setting [8]); 0.15 to 0.3 µM (≈ 0.0715 to 0.143 µg/mL) in series [2] (setting [12]); 0.3 µM (≈ 0.143 µg/mL) in series [2] (setting [9]); 0.39 to 0.78 µM (≈ 0.186 to 0.372 µg/mL) in series [3] (18 h, Table 2, ATCC 700221); 0.39 µM (≈ 0.186 µg/mL) in series [3] (Table 2, ATCC 700221). Further, the figures for the MBC in series [4] (setting [10]), in series [5] (setting [11]) and in series [6] (setting [13]) were 62.5 µM (≈ 29.8 µg/mL), 1.5 µM (≈ 0.715 µg/mL) and 2 µM (≈ 0.954 µg/mL), respectively.
As for `Oc1c(Br)cc(Br)c2ccc(CNc3ccc(Br)cc3)nc12` [HQ-6], the MIC in series [1] (setting [8]) was 3.13 µM (≈ 1.52 µg/mL); in series [1] (Staphylococcus, MRSA, read-out: MIC), 4.69 µM (≈ 2.28 µg/mL); in series [2] (setting [12]) it was 0.15 to 0.3 µM (≈ 0.073 to 0.146 µg/mL); in series [2] (setting [9]), 0.15 µM (≈ 0.073 µg/mL); in series [3] (18 h, Table 2, ATCC 700221), 0.39 to 0.78 µM (≈ 0.19 to 0.38 µg/mL); in series [3] (Table 2, ATCC 700221), 0.78 µM (≈ 0.38 µg/mL). Further, the MIC stood at 9.38 µM in the series with MRSA-2 (MRSA-2, 200 μM ammonium iron (II) sulfate hexahydrate, read-out: MIC w/Fe^2+); 1.13 µM with MRSA-2 (MRSA-2, 200 μM copper (II) sulfate, read-out: MIC w/Cu^2+); 3.13 µM in the series with MRSA-2 (MRSA-2, 200 μM magnesium (II) sulfate, read-out: MIC w/Mg^2+); 0.78 µM in the series with MRSA-2 (MRSA-2, 200 μM zinc (II) chloride, read-out: MIC w/Zn^2+). Further, in series [2] (MRSE, MIC, same assays), the “fold more potent antibacterial activities than vancomycin” value turned out to be 5 fold. The “Fold Δ (MIC w/Mg^2+)” value in the series on MRSA-2 (setting [14]) is listed as “insignificant changes in antibacterial activities”. Further, the “Fold Δ (MIC w/Zn^2+)” value with MRSA-2 (setting [14]) is on record as −6 fold. The “MBEC:MBC ratio” value in series [4] (MRSA-2, CBD) is recorded as “equipotent killing efficiencies”. The MBC in series [4] (setting [10]) is 125 µM (≈ 60.9 µg/mL); in series [5] (setting [11]), 5.9 µM (≈ 2.87 µg/mL); in series [6] (setting [13]), 3.9 µM (≈ 1.9 µg/mL).
